Consider 53 compounds from PubChem BioAssay AID179 (DTP/NCI, 2004).

A word on the EC50: it is the concentration at which the effect is half-maximal. In general, IC50 refers to the concentration at which inhibition is half-maximal.

This test deals with CEM cells HIV-1 protection, formazan growth assay. The experiment in a line: NCI AIDS Antiviral Assay. The conditions noted are these: for IC50: measured here: growth of uninfected CEM cells. An outline of the steps:
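Protection of CEM cells against HIV-1 measured as cell growth via soluble formazan read-out, with five concentrations tested on both infected and uninfected cells; failure to protect may reflect toxicity.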

The source made the active and inactive calls.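 How the source made its calls: active means compounds giving half or more protection of infected cells from virus-caused growth loss, again on retest; inactive means the rest.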 Where a SMILES comes first, the peptide text is derived from it. [ ]: non-standard residue; d: D form. The star is where a group is joined. ξ: configuration not given here. Boc = CC(C)(C)OC(=O)*; ξV = CC(C)C(N)C(=O)O; OBn = c1ccc(CO*)cc1

Turning to `CCCCCCCCOC1N(C2CC(N=[N+]=[N-])C(CO)O2)C(=O)NC(=O)[C@]1(C)Cl` (some centres not stated), the EC50 is greater than 200 µM and the IC50 came to 37.2 µM.

Consider `CNC(=O)N1N[C@H](c2ccccc2)[C@@H]1c1ccccc1`, for which the EC50 is greater than 200 µM and the IC50 came to 42.7 µM.

As for `Cc1cccc2c1N(C(=O)/C=C\C(=O)O)C(c1c(C)[nH]c3ccccc13)C2` (configuration not stated), the EC50 is greater than 138 µM and the IC50 came out at 75.9 µM.

Regarding `CCN(CC)CCOC(=O)C(c1ccccc1)c1ccccc1`, the EC50 is greater than 200 µM and the IC50 was greater than 200 µM.

Consider `OCCCSc1ccccc1SCCCO`, for which the EC50 was greater than 52.5 µM and the IC50 is greater than 52.5 µM.

Consider `C=C(C)c1nc(Oc2ccccc2)nc(Oc2ccccc2)n1`, for which the EC50 was greater than 200 µM and the IC50 came to 3.55 µM.

For `CCn1c(=S)[nH]c2sc3c(c2c1=O)CCCCC3`, the EC50 is greater than 107 µM and the concentration for half-maximal inhibition (IC50) was 21.9 µM.

Consider `Clc1ccc(CNc2nc3ccccc3nc2-c2cccs2)c(Cl)c1`, for which the EC50 was greater than 9.77 µM and the IC50 is greater than 9.77 µM.

With `CCCCCCCCCCCc1c2oc3ccc(C)cc3[nH]c-2cc(=O)c1=O`, the EC50 was greater than 4.68 µM and the IC50 was greater than 4.68 µM.

As to `CCN(CC)C(=S)SCCCS(=O)(=O)O`, the result was inactive.

Regarding `C1=CC(=P(c2ccccc2)(c2ccccc2)c2ccccc2)C=C1`, the outcome was inactive.

For `Cc1[nH]c2nccn2c(=O)c1CCO`, the EC50 was greater than 200 µM and the IC50 was greater than 200 µM.

In the case of `NC1=CN(Cc2ccccc2)C2=N/C(=C\c3ccccc3)C(=O)N12`, the EC50 is greater than 200 µM and the IC50 stood at 77.6 µM.

For the compound `c1ccc2c(c1)CCN(C1=NCCO1)C2`, the EC50 is greater than 200 µM and the IC50 was 178 µM.

As to `N#CC(C(=O)CCC(=O)Nc1cccc(C(F)(F)F)c1)c1ccc(Cl)cc1` (configuration not stated), the result was inactive.

Consider `CN(C)CCNC(=O)c1nn(-c2ccccc2)c2c1CSc1ccccc1-2`, for which the EC50 is greater than 200 µM and the 50% inhibitory concentration (IC50) was determined as 110 µM.

In the case of `Cc1ccc(NC(c2ccccc2)P(=O)(c2ccccc2)c2ccccc2)cc1` (configuration not stated), the EC50 is greater than 200 µM and the IC50 is greater than 200 µM.

On to `CC(=O)Nc1ccc(-c2nnc(SCC(=O)Nc3ccc(Cl)cc3Cl)o2)cc1`, for which the EC50 was greater than 42.7 µM and the concentration for half-maximal inhibition (IC50) was determined as 25.1 µM.

For `CC(=O)CC(=O)CCC(=O)Nc1cccc(C(F)(F)F)c1`, the outcome was inactive.

Take `CC(C)C(NC(=O)OC(C)(C)C)C(=O)NCC(=O)OCc1ccccc1` (configuration not stated) (Boc-[ξV]-Gly-OBn): the EC50 was greater than 200 µM and the IC50 came out at 28.2 µM.

As to `O=[N+]([O-])c1ccc(Nc2nnc(-c3ccc(Cl)cc3Cl)s2)cc1`, the result was inactive.

As to `Cc1ccc2c(c1)nc1sc(C)cc(=O)n12`, the EC50 was greater than 200 µM and the half-maximal inhibitory concentration (IC50) was greater than 200 µM.

As to `CCC1(CC)C(=O)N(C(=O)c2ccc(Cl)cc2)N(C(=O)c2ccccc2Cl)C1=O`, the EC50 is greater than 200 µM and the 50% inhibitory concentration (IC50) was found to be 45.7 µM.

Turning to `O=S(=O)(O)c1cc2ccc1/C=C\c1ccc(cc1S(=O)(=O)O)N=Nc1ccc(c(S(=O)(=O)O)c1)/C=C\c1ccc(cc1S(=O)(=O)O)N=N2`, the result was active.

Turning to `CCOCCN(Cc1ccc(CN(CCOCC)C(=O)C(Cl)Cl)cc1)C(=O)C(Cl)Cl`, the EC50 is greater than 200 µM and the IC50 is greater than 200 µM.

Consider `O=c1[nH]c2nc(SCc3ccccc3)n(Cc3ccccc3)c2c(=O)n1OS(=O)(=O)c1ccccc1`, for which the EC50 was greater than 200 µM and the IC50 was 75.9 µM.

As to `CCCCNC(=O)c1cc(S(=O)(=O)n2cc[nH]c2=O)c(SC)cc1Cl`, the EC50 is greater than 200 µM and the half-inhibitory concentration (IC50) was greater than 200 µM.

Take `CCCCCCCCCCCCCCCCCCN(C)C`: the EC50 is greater than 200 µM and the half-inhibitory concentration (IC50) worked out at 97.7 µM.

Turning to `Nc1cc(N)c(N=Nc2ccc(CCc3ccc(N=Nc4c(N)cc(N)cc4C(=O)O)cc3S(=O)(=O)O)c(S(=O)(=O)O)c2)c(C(=O)O)c1`, the EC50 was greater than 1020 µM and the half-maximal inhibitory concentration (IC50) amounted to 174 µM.

`CCNC(=O)Nc1ccc(Cl)cn1`: the EC50 was greater than 200 µM and the IC50 worked out at 132 µM.

On to `O=C(/C=C/c1ccccc1)c1cc(CN2CCOCC2)c(O)c(CN2CCOCC2)c1`, for which the EC50 is greater than 200 µM and the IC50 is 8.51 µM.

In the case of `Cc1ccc(C(=O)Nc2ccc(S(=O)(=O)[O-])c3cc(S(=O)(=O)[O-])cc(S(=O)(=O)[O-])c23)cc1NC(=O)c1cccc(NC(=O)Nc2cccc(C(=O)Nc3cc(C(=O)Nc4ccc(S(=O)(=O)[O-])c5cc(S(=O)(=O)[O-])cc(S(=O)(=O)[O-])c45)ccc3C)c2)c1.[Ga]`, the EC50 was greater than 759 µM and the IC50 was found to be 42.7 µM.

Consider `CCOC(=O)C1C[C@H]2CO[C@H](c3ccccc3)N2C1=O` (some centres not stated), for which the EC50 was greater than 200 µM and the IC50 was greater than 200 µM.

With `CC(=O)c1c(C)n(C)c2c1nnc1ccccc12`, the EC50 is greater than 41.7 µM and the IC50 came out at 30.2 µM.

As for `COC12OCCN(CCO)C1=CC(=O)C1(C)N=NC(C)C12` (configuration not stated), the outcome was inactive.

For the compound `C/C(=N\NS(=O)(=O)c1ccccc1)c1ccc(Cl)c(Cl)c1`, the outcome was inactive.

Turning to `O=NN(CCCl)C(=O)NC1CCC(=O)NC1=O` (configuration not stated), the EC50 is greater than 955 µM and the half-inhibitory concentration (IC50) came out at 182 µM.

On to `COc1ccc(-c2cc(=O)c3cc(Cl)cc(Cl)c3o2)cc1OC`, for which the EC50 was greater than 100 µM and the IC50 is greater than 100 µM.

As for `O=C1CCCC/C1=C/C=C/c1ccccc1`, the EC50 was greater than 64.6 µM and the 50% inhibitory concentration (IC50) is greater than 64.6 µM.

Turning to `Cc1c2ccccc2nc(CS(=O)c2ccccc2)[n+]1[O-]` (configuration not stated), the EC50 is greater than 200 µM and the concentration for half-maximal inhibition (IC50) was determined as 186 µM.

For the compound `O=C1N=NC(Cl)c2ccccc21` (configuration not stated), the EC50 is greater than 28.8 µM and the half-inhibitory concentration (IC50) is greater than 28.8 µM.

For the compound `O=c1cc(N=Nc2ccc(Cl)cc2)[nH]c(=O)[nH]1`, the EC50 was greater than 2 µM and the 50% inhibitory concentration (IC50) was 0.851 µM.

Take `c1ccc(N2C3Sc4ncccc4C2Sc2ncccc23)cc1`: the EC50 was greater than 66.1 µM and the IC50 was greater than 66.1 µM.

Turning to `C=CCN1CCC(c2cc(C(=O)OCC)[nH]c2-c2cc(C)no2)C1=O` (configuration not stated), the EC50 was greater than 200 µM and the half-inhibitory concentration (IC50) was greater than 200 µM.

Take `Cc1cccc(C)c1NC(=O)CCC(=O)NNc1nnc(C)n1N`: the EC50 was greater than 398 µM and the 50% inhibitory concentration (IC50) is greater than 398 µM.

As for `CCOc1ccccc1N=C(NC(=O)CC)SC`, the EC50 was greater than 18.2 µM and the IC50 was greater than 18.2 µM.

In the case of `Cc1cn(C2CC(N=[N+]=[N-])C(CO)O2)c(=O)[nH]c1=O` (configuration not stated), the concentration giving a half-maximal response (EC50) was 0.0148 µM and the IC50 was determined as 0.316 µM.

On to `Cc1cc(C)c(C(=O)C(C)C(c2ccccc2)c2ccc(Cl)cc2)c(C)c1` (configuration not stated), for which the EC50 was greater than 26.3 µM and the IC50 was greater than 26.3 µM.

As for `CCCCOC(=O)C(=O)/C(=C\n1c(=S)[nH]c2cc(C)ccc21)C(=O)C=C(C)C`, the EC50 was greater than 200 µM and the IC50 is greater than 200 µM.

Take `c1ccc(COc2ccc3[nH]c4c(ncc5[nH]c6ccccc6c54)c3c2)cc1`: the result was inactive.

Regarding `COc1ccc(CCN2CCOCC2)cc1`, the EC50 was greater than 200 µM and the 50% inhibitory concentration (IC50) was greater than 200 µM.

Consider `COC(=O)/C(=C\c1cn(C(C)=O)c2ccccc12)P(=O)(OC)OC`, for which the EC50 was greater than 200 µM and the IC50 came out at 33.1 µM.

Consider `O=c1c2cc(-c3ccccc3)cnc2sn1-c1ccc(Oc2ccccc2)cc1`, for which the EC50 was 69.2 µM and the half-maximal inhibitory concentration (IC50) was determined as 110 µM.
